# Test results taken from patent US10040804B2, “Compounds targeting proteins, compositions, methods, and uses thereof” (BioTheryX, Inc., priority 2016, dated 2018).
# Columns and labels:
# IL-1β = IL-1β expression in LPS stimulated PBMCs (Meso Scale); type: cell-based, human; details: Homo sapiens, PBMC; for inhibition at 10 µM: compound concentration 10 μM
# How it was run: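 Human PBMCs (200,000 cells/well in RPMI-1640/10% FBS) were pretreated with compound for 1 h, then stimulated with 100 ng/mL LPS for 18-24 h. IL-1β in supernatant was measured by Meso Scale assay. Activity is expressed as percentage of LPS-induced level, with DMSO-treated wells as negative control.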
# IL-6 = IL-6 expression in LPS stimulated PBMCs (Meso Scale); type: cell-based, human; details: Homo sapiens, PBMC, LPS-stimulated PBMCs; for inhibition at 10 µM: compound concentration 10 μM
# How it was run: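 Thawed human PBMCs at 200,000 cells/well in RPMI-1640/10% FBS were pretreated with compound or DMSO for 1 h, then stimulated with 100 ng/mL LPS for 18–24 h. Supernatant IL-6 was measured by Meso Scale assay and expressed as % of LPS-induced activity.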
# TNF-α = TNF-α expression in LPS stimulated PBMCs (Meso Scale); type: cell-based, human; details: Homo sapiens, PBMC; for inhibition at 10 µM: compound concentration 10 μM
# How it was run: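 Thawed primary human PBMCs, 200,000 cells/well in RPMI-1640/10% FBS, pretreated with compound 1 h, then stimulated with 100 ng/mL LPS for 18-24 h. Supernatant TNF-α measured by Meso Scale assay; activity expressed as percentage of LPS-induced level, DMSO as negative control.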
# IL-2 = assay: anti-CD3-induced IL-2 secretion in PBMCs; type: cell-based; details: Homo sapiens, PBMC, anti-CD3 stimulated PBMCs, 24 h, DMSO = 1.0, read-out: Fold Change IL-2; for fold induction at 10 µM: compound concentration 10 μM
# Experimental: FIGS. 4 and 9D are graphs showing anti-CD3-induced IL-2 secretion in PBMCs. 1 ug/mL anti-CD3 (OKT-3) antibody in PBS were coated onto 96-well plates overnight at 4° C. Approximately 550,000 PBMCs were added to each well, followed by addition of DMSO only, Compound 1-8 at 10 μM (FIG. 4) or Compound 9 at 0.1 μM or 1 μM (FIG. 9D), or 10 μM lenalidomide (rev). Induction was measured after 24 h as fold difference from the DMSO stimulated control.
# For the IL-2 analysis, 96 well plates were precoated with 1 ug/mL anti-human CD3 antibody (OKT3, eBioscience Inc.). After washing with PBS, compounds were added to the wells (50 μL/well) followed by PBMCs diluted at 3-4 million cells/mL (150 μL/well). Plates were incubated for 24 h and the supernatants collected for Mesoscale IL-2 analysis.
# Compound activity was measured as fold difference from the DMSO control. IL-1-beta activity is shown in FIG. 1; IL-6 activity is shown in FIG. 2; TNF-α activity is shown in FIG. 3; and IL-2 activity is shown in FIG. 4.
# Molm-13 cells = assay: Molm-13 cell viability (CellTiter-Glo); type: cell-based; details: Homo sapiens, MOLM-13, read-out: % Inhibition (MOLM-13 Cell Viability); for cytotoxicity at 10 µM: compound concentration 10 μM; for cytotoxicity at 2.8 µM: compound concentration 2.8 μM
# How it was run: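 Molm-13 (RPMI-1640, 10% FBS) and H1048 (DMEM:F12, 5% FBS with supplements) plated at 20,000 cells/well, treated with compound or 0.1% DMSO for 3 days at 37° C., 5% CO2. Viability read by CellTiter-Glo luminescence after 10 min.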
SMILES,inhibition at 10 µM (IL-1β) [%],inhibition at 10 µM (IL-6) [%],inhibition at 10 µM (TNF-α) [%],fold induction at 10 µM (IL-2),cytotoxicity at 10 µM (Molm-13 cells) [%],cytotoxicity at 6 µM (Molm-13 cells; compound concentration 6 μM) [%],cytotoxicity at 2.8 µM (Molm-13 cells) [%],inhibition at 1 µM (IL-1β; compound concentration 1 μM) [%],inhibition at 1 µM (IL-6; compound concentration 1 μM) [%],inhibition at 1 µM (TNF-α; compound concentration 1 μM) [%],fold induction at 1 µM (IL-2; compound concentration 1 μM),cytotoxicity at 0.2 µM (Molm-13 cells; compound concentration 0.2 μM) [%]
"Cc1scc2c1CN([C@H]1CC(=O)NC1=O)C2=O [Compound 20, (S)-3-(1-Methyl-4-oxo-4H-thieno[3,4-c]pyrrol-5(6H)-yl) pyrrolidine-2,5-dione]",50,19,58,2.2,19,,,,,,,
"O=C1CCC(N2Cc3sccc3C2=O)C(=O)N1 (centres unmarked) [Compound 21, 3-(4-Oxo-4H-thieno[2,3-c]pyrrol-5(6H)-yl)piperidine-2,6-dione]",74,73,74,2.9,16,,,,,,,
"O=C1CCC(N2C(=O)c3scc(C4CCCC4)c3C2=O)C(=O)N1 (centres unmarked) [Compound 22, 3-Cyclopentyl-5-(2,6-dioxopiperidin-3-yl)-4H-thieno[2,3-c]pyrrole-4,6(5H)-dione]",0,16,26,0.8,23,,,,,,,
"O=C1CCC(N2Cc3c(csc3C(F)F)C2=O)C(=O)N1 (centres unmarked) [Compound 23, 3-(1-(Difluoromethyl)-4-oxo-4H-thieno[3,4-c]pyrrol-5(6H)-yl)piperidine-2,6-dione]",69,45,82,2,34,,,,,,,
"O=C1CCC[C@H](N2Cc3c(C4CCCC4)csc3C2=O)C(=O)N1 [Compound 24, (S)-3-(3-Cyclopentyl-6-oxo-4H-thieno[2,3-c]pyrrol-5(6H)-yl)azepane-2,7-dione]",11,6,23,0.7,26,,,,,,,
"Cc1sc(Cl)c2c1CN([C@H]1CCCC(=O)NC1=O)C2=O [Compound 25, (S)-3-(3-Chloro-1-methyl-4-oxo-4H-thieno[3,4-c]pyrrol-5(6H)-yl)azepane-2,7-dione]",45,22,41,1.3,20,,,,,,,
"O=C1CCC(N2C(=O)c3cc(C4CCCC4)sc3C2=O)C(=O)N1 (centres unmarked) [Compound 26, 2-Cyclopentyl-5-(2,6-dioxopiperidin-3-yl)-4H-thieno[2,3-c]pyrrole-4,6(5H)-dione]",2,14,31,0.9,0,,,,,,,
"O=C1CCC(N2C(=O)c3csc(C4CCCC4)c3C2=O)C(=O)N1 (centres unmarked) [Compound 27, 1-Cyclopentyl-5-(2,6-dioxopiperidin-3-yl)-4H-thieno[3,4-c]pyrrole-4,6(5H)-dione]",21,3,22,0.8,0,,,,,,,
"Cc1scc2c1CN([C@H]1CCCCNC1=O)C2=O [Compound 28, (S)-1-Methyl-5-(2-oxoazepan-3-yl)-5,6-dihydro-4H-thieno[3,4-c]pyrrol-4-one]",0,9,0,0.9,0,,,,,,,
"Cc1cnc(Nc2ccc(OCCCNCC(=O)NCc3scc4c3CN([C@H]3CCCC(=O)NC3=O)C4=O)cc2)nc1Nc1cccc(S(=O)(=O)NC(C)(C)C)c1 [Compound 58, (S)-2-((3-(4-((4-((3-(N-(tert-Butyl)sulfamoyl)phenyl)amino)-5-methylpyrimidin-2-yl)amino)phenoxy)propyl)amino)-N-((5-(2,7-dioxoazepan-3-yl)-4-oxo-5,6-dihydro-4H-thieno[3,4-c]pyrrol-1-yl)methyl)acetamide]",82,53,92,1.9,,50,,,,,,
"Cc1cnc(Nc2ccc(OCCCNCC(=O)NCc3scc4c3CN(C3CCC(=O)NC3=O)C4=O)cc2)nc1Nc1cccc(S(=O)(=O)NC(C)(C)C)c1 (centres unmarked) [Compound 59, 2-((3-(4-((4-((3-(N-(tert-Butyl)sulfamoyl)phenyl)amino)-5-methylpyrimidin-2-yl)amino)phenoxy)propyl)amino)-N-((5-(2,6-dioxopiperidin-3-yl)-4-oxo-5,6-dihydro-4H-thieno[3,4-c]pyrrol-1-yl)methyl)acetamide]",45,10,81,1.8,,,50,,,,,
"Cc1sc2c(c1C)C(c1ccc(Cl)cc1)=N[C@@H](CC(=O)NCCCCNCC(=O)NCc1scc3c1CN(C1CCC(=O)NC1=O)C3=O)c1nnc(C)n1-2 (stereo partly drawn) [Compound 60, 2-((S)-4-(4-Chlorophenyl)-2,3,9-trimethyl-6H-thieno[3,2-f][1,2,4]triazolo[4,3-a][1,4]diazepin-6-yl)-N-(4-((2-(((5-(2,6-dioxopiperidin-3-yl)-4-oxo-5,6-dihydro-4H-thieno[3,4-c]pyrrol-1-yl)methyl)amino)-2-oxoethyl)amino)butyl)acetamide]",,,,,,,,91,95,93,0.2,50
"Cc1cnc(Nc2ccc(OCCCNC(=O)NCc3scc4c3CN([C@H]3CCCC(=O)NC3=O)C4=O)cc2)nc1Nc1cccc(S(=O)(=O)NC(C)(C)C)c1 [Compound 61, (S)—N-(tert-Butyl)-3-((2-((4-(3-(3-((5-(2,7-dioxoazepan-3-yl)-4-oxo-5,6-dihydro-4H-thieno[3,4-c]pyrrol-1-yl)methyl)ureido)propoxy)phenyl)amino)-5-methylpyrimidin-4-yl)amino)benzenesulfonamide]",53,11,66,0.8,,,50,,,,,
